Source: US8992891B2, “Therapeutic approaches for treating CMT and related disorders” (Pharnext, priority 2007, dated 2015)

Legend:
PMP22 protein = PMP22 protein expression analysis by flow cytometry (FACS) in Schwann cells; type: cell-based, rat; parameters: key to Protein (PMP22 expression decrease): +: significantly decreases PMP22 levels compared to control; conditions: for Protein (PMP22 expression decrease): rat primary Schwann cells, FACS, 24 hrs
Procedure: One day later, Schwann cells are stimulated by combinations of drugs or drugs alone during 24 hrs (3 wells/condition). The preparation of each compound is performed just prior to its addition to the cell culture medium. Drugs are added to a defined medium composed of DMEM-F12, with 1% Insulin-Transferrin-Selenium-X (ITS, Invitrogen #51300), 16 μg/ml of Putrescine, 0.02 μg/ml of corticosterone, 10 nM Progesterone and 50 μg/ml of gentamicin. The absence of Forskolin during drug stimulation avoids adenylate cyclase saturation. 8 hrs, 24 hrs and 48 hrs after drugs incubation, supernatants are recovered, centrifuged and frozen. SC are detached with trypsin-EDTA. As soon as the majority of cells are in suspension, the trypsin is neutralised using DMEM with 10% FCS. Supernatants with cells are recovered and centrifuged. The pellets of cells are transferred in micro tubes, washed in PBS once and fixed with a specific solution (AbCys #Reagent A BUF09B). 10 minutes later, cells are rinsed once with PBS and kept at 4° C. Five days after cell fixation, all cell preparations with different incubation times are labelled using the following protocol. […] Cells are then centrifuged at 7000 rpm for 5 minutes and cell pellets are rinsed once in PBS. A secondary antibody is added, coupled to Alexa Fluor 488 (goat anti-rabbit IgG, Molecular Probes #A11008, 1/100), for one hour at room temperature. Cells are then centrifuged at 7000 rpm for 5 minutes and cell pellets are rinsed once in PBS. The labelling is increased adding a tertiary antibody coupled to Alexa Fluor 488 (chicken anti-goat IgG, Molecular Probes #A21467, 1/100) for one hour incubation, at room temperature. Cells are then rinsed once in PBS. Control without any antibody (unlabelled cells) is performed to determine the level of autofluorescence and adapted the sensitivity of the photomultiplicators. Control with both secondary and tertiary antibodies but without primary antibody, is performed to assess non specific binding of antibodies. Data acquisition and analysis are performed with a FACS Array cytometer and FACS Array software (Becton Dickinson) on 5000 cells. Forward Scatter (FSC) correlated with cell volume (size) and Side Scatter (SSC) depending on inner complexity of cells (granularity) are analysed. For expression of PMP22, analysis is performed within the total cells and percent of positive cells is calculated. Positive cells are cells with fluorescence intensity higher than the control with secondary antibody. We tested the ability of some drugs to inhibit PMP22 protein expression (FACS analysis). […] The results of the action of some individual drugs on the protein level of PMP22 are also shown on table 1 above.

[1] = system: hemizygous PMP22 transgenic rat (CMT rat); test: Bar test in CMT transgenic rat model; type: in vivo; conditions: CMT rats; for bar test performance compared with the placebo group: 16 weeks of treatment; for improvement of bar test motor performances versus placebo: after 8 weeks of the force-feeding; for bar test performances throughout the treatment procedure: chronic treatment
From the text: Four weeks-old rats transgenic PMP22 rats have been used throughout of the study. Aspects of the study design (randomization, statistics for multiple comparisons, sample size etc.) have been checked to be in line with the recommendations provided in 4th issue of 43rd volume of ILAR Journal (2002), that provides reviews in the field of experimental design and statistics in biomedical research.
The experimental groups are formed with young rats of both genders separately. The rats are assigned to the groups following randomization schedule based on the body weight. In some experiments the randomization is based on the performances of the rats in the bar test.
Both genders are represented by separate control groups that are numerically equal or bigger than the treatment groups.
The animals are weighted twice a week in order to adjust the doses to growing body weight. If the osmotic pump is chosen for the treatment administration, the doses of the drug are calculated on the basis of the estimated mean body weight of the animals expected for their age over the period of the pump duration (6 weeks). The pumps are re-implanted if necessary, with the appropriated aesthesia protocol.
Each three or four weeks the animals are subjected to a behavioural test. Each test is conducted be the same investigator in the same room and at the same time of the day; this homogeneity is maintained throughout entire experiment. All treatments are blinded for the investigator. “Bar test” and “Grip strength” has been mainly used to access the performance throughout study. The schedule of the bar test may change as the animal growth (in order to avoid the bias due to the learning, for example).
The Bar Test evaluates rats' ability to hold on a fix rod. […] The rat is placed on its four paws on the middle of the rod (diameter: 2.5 cm; length: 50 cm; 30 cm above the table). Trials are performed consecutively; the number and the duration of trials in our experiments have been depending on batches of the animals. This variability in the testing have been introduced in order to determine the schedule appropriated to the best detection of the motor deficiency in the CMT rats in the course of the experiments.
Performance indices are recorded on each session: • The number of trials needed to hold for 60 sec (or 30 sec for batch 1, session 1 and 2) on the rod. • The time spent on the bar (i.e. the fall latency) in each trial and the average on the session. In the experimental procedures where the session ends after the rat has stayed for a cut-off time, i.e. 30 or 60 s, on the bar, a performance of the cut-off time (30 s or 60 s) is assigned to trials not completed (eg: for batch 8, for an animal which stays on the bar less than 10 sec on trials 1, 2 and 3, then for 60 sec on trials 4 and 5, 60 s is assigned to trials 6 to 10). • The number of falls.

[2] = system: hemizygous PMP22 transgenic rat (CMT rat); test: Morphometrical analysis of hindlimb tissues and body weight in CMT rats; conditions: CMT female rats, end of study, versus control WT rats

Row | Compound | Protein (PMP22 expression decrease) (PMP22 protein) | first dose shown to be active, as fraction of the dose equivalent to dosage used in human for the canonical indications [1] | bar test performance compared with the placebo group [1] | improvement of bar test motor performances versus placebo [1] | bar test performances throughout the treatment procedure [1] | deficiencies of sciatic nerve and soleus muscle masses [2] | PMP22 protein expression, in words (PMP22 protein; Schwann cells in vitro, 24 hrs of incubation, compared to untreated controls)
1 | Cn1cc[nH]c1=S [Methimazole] | + | one fourth | significantly more performing | statistically significant | improved bar test performances | completely corrected | –
2 | CC[C@@H]1C(=O)OC[C@@H]1Cc1cncn1C [Pilocarpine] | + | one half | significantly more performing | statistically significant | improved bar test performances | – | decreases expression of the PMP22 protein
